Molecular target: T1, His-TtCbs1 (TtCbs1, cystathionine β-synthase) (Tetrahymena thermophila, UniProt I7M350)
T1 construct: gene TTHERM_00558300
T1 sequence (I7M350 1-500): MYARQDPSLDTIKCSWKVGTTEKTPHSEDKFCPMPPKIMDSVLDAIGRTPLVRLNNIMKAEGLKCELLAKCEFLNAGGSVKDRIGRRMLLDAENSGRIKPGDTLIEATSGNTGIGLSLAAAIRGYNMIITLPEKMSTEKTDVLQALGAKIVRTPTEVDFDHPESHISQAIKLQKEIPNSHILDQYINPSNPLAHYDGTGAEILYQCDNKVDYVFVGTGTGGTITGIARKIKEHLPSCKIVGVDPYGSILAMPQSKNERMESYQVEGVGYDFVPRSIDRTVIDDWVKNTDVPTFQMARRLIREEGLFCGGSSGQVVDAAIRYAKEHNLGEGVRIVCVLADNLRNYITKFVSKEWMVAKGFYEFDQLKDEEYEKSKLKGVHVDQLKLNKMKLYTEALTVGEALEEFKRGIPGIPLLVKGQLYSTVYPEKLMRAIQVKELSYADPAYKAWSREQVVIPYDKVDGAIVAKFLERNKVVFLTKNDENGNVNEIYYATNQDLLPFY
Experiment: CdS quantum dot formation from enzymatically released H2S, UV-Vis and fluorescence
Type: biochemical
Settings: 50 mM Tris-HCl pH 8.5, 37 °C, 0.1 mg/mL enzyme, 4 mM cysteine, 0.5 mM CdCl2; no signal without enzyme

Compound: N[C@@H](CS)C(=O)O [L-cysteine]
- CdS quantum dot formation from enzymatically released H2S, UV-Vis and fluorescen: Cysteine, as a thiol compound, serves as a substrate for His-TtCbs1 to produce H2S

Reference: article PMC12542638, “Cystathionine β-synthase TtCbs1 from Tetrahymena thermophila catalyzes the synthesis of CdS quantum dots for methyl orange decolorization” (Applied and Environmental Microbiology, 2025)
